Patent US11059843B2, “Stevioside M crystal form, preparation method therefor and use thereof” (ZHUCHENG HAOTIAN PHARM CO., LTD., priority 2017, dated 2021)

How the values were obtained:
[1] = Dynamic moisture adsorption (DVS) hygroscopicity; format: physicochemical; settings: for hygroscopic mass change (0%-40% RH) / hygroscopicity: water absorption at 40% RH / hygroscopic mass change (40%-80% RH) / hygroscopicity: water absorption at 80% RH: DVS, 25° C.
Description: DVS analysis: It was measured using DVS Intrinsic type dynamic moisture adsorption instrument from British SMS instrument company, measuring temperature: 25° C.; relative humidity: 0-95%.

[2] = water at room temperature, stevioside M content of 75% to 90%; cited from earlier work
[3] = Chemical stability by HPLC after storage at 40° C. and RH 75% for half a year; format: physicochemical
Description: HPLC analysis: It was determined using a 1260 infinity liquid chromatograph from Agilent Technologies, Inc., USA. Sample solution preparation method: 25-50 mg of stevioside M sample was accurately weighed, and added into a 25 ml volumetric flask, then water-acetonitrile (7:3, v/v) solution was added, dissolved to volume. Preparation method of sodium phosphate buffer (specification: 10 mmol/L, pH: 2.6): dissolving 2.76 g of sodium dihydrogen phosphate into 2 liters of water, adding phosphoric acid, and the pH was adjusted to 2.6. Chromatographic column: Luna 5μ C18(2) 100 A column from Phenomenex. Injection volume: 5 μl. Flow rate: 1.0 mL/min. Column temperature: 40° C. Detector: UV detection at 210 nm. The elution gradient is shown as follows: […]

[4] = Physical stability of crystal form on storage at 25° C. and RH 60% for half a year (XRPD); format: physicochemical
Description: (§1) X-ray powder diffraction analysis (XRPD), differential scanning calorimetry analysis (DSC), thermogravimetric analysis (TG), dynamic moisture adsorption analysis (DVS) and the like were made for the crystal form A of stevioside M prepared in the above examples. XRPD analysis: It was tested at room temperature using a Bruker D8 advance type diffractometer from Bruker Instruments, Germany, Cu-Kα ray (λ=1.5418 Å) was used, the 2θ angle was scanned from 3 to 40 degrees, and the scanning speed was 0.2 degrees/second.
The crystal form A of stevioside M prepared in the above examples was stored at 25° C. and RH 60% for half a year, and the analysis results are shown in FIG. 9.

[5] = Crystal form stability by XRPD after drying at 105° C. for one day; format: physicochemical
Description: as §1
The crystal form A of stevioside M prepared in the above examples was subjected to XRPD analysis after drying at 105° C. for one day, and the analysis results are shown in FIG. 7. It can be seen from FIG. 7 that the crystal form is unchanged, and the crystal form has good stability under high temperature conditions. The crystal form B of stevioside M is extremely unstable under high temperature conditions, and which is amorphous after drying for one day at 105° C., and the analysis results are shown in FIG. 8.

[6] = Water solubility / powder dissolution profile; format: physicochemical
Description: The crystal form A of stevioside M prepared in the above examples has good reproducibility and is stable in water solubility, and has a maximum solubility of about 3 mg/mL, and the equilibrium solubility is about 2 mg/mL at 24 hours. The powder dissolution profiles of the two batches of crystal form A of stevioside M prepared by the examples are shown in FIG. 11. The water solubility of crystal form A is similar to that of the stevioside D-stevioside M amorphous composition (about 3 mg/mL) disclosed in Patent CN 105722533 A, and both of which can stably increase the water solubility by 2-3 times.

C=C1C[C@@]23CCC4[C@](C)(C(=O)OC5OC(CO)C(O)C(OC6OC(CO)C(O)C(O)C6O)C5OC5OC(CO)C(O)C(O)C5O)CCC[C@@]4(C)[C@@H]2CCC1(OC1OC(CO)C(O)C(OC2OC(CO)C(O)C(O)C2O)C1OC1OC(CO)C(O)C(O)C1O)C3 (stereo partly drawn) [amorphism of stevioside M, 13-[(2-O-β-D-pyranoglucosyl-3-O-β-D-pyranoglucosyl-β-D-pyranoglucosyl)oxyl]-ent-kauran-16-en-19-oic acid-[(2-O-β-D-pyranoglucosyl-3-O-β-D-pyranoglucosyl-β-D-pyranoglucosyl) ester], reference compound]
hygroscopic mass change (0%-40% RH) [1]: 11.0%
hygroscopicity: water absorption at 40% RH [1]: 40% RH, 11.0% of
hygroscopic mass change (40%-80% RH) ([1]; 40%-80% RH): 8.2%
hygroscopicity: water absorption at 80% RH [1]: 80% RH, 19.2% of

C=C1C[C@@]23CCC4[C@](C)(C(=O)OC5OC(CO)C(O)C(OC6OC(CO)C(O)C(O)C6O)C5OC5OC(CO)C(O)C(O)C5O)CCC[C@@]4(C)[C@@H]2CCC1(OC1OC(CO)C(O)C(OC2OC(CO)C(O)C(O)C2O)C1OC1OC(CO)C(O)C(O)C1O)C3 (stereo partly drawn) [stevioside M, 13-[(2-O-β-D-pyranoglucosyl-3-O-β-D-pyranoglucosyl-β-D-pyranoglucosyl)oxyl]-ent-kauran-16-en-19-oic acid-[(2-O-β-D-pyranoglucosyl-3-O-β-D-pyranoglucosyl-β-D-pyranoglucosyl) ester]]
solubility in water [2]: 0.1% to 0.15

C=C1C[C@@]23CCC4[C@](C)(C(=O)OC5OC(CO)C(O)C(OC6OC(CO)C(O)C(O)C6O)C5OC5OC(CO)C(O)C(O)C5O)CCC[C@@]4(C)[C@@H]2CCC1(OC1OC(CO)C(O)C(OC2OC(CO)C(O)C(O)C2O)C1OC1OC(CO)C(O)C(O)C1O)C3 (stereo partly drawn) [crystal form A of stevioside M, 13-[(2-O-β-D-pyranoglucosyl-3-O-β-D-pyranoglucosyl-β-D-pyranoglucosyl)oxyl]-ent-kauran-16-en-19-oic acid-[(2-O-β-D-pyranoglucosyl-3-O-β-D-pyranoglucosyl-β-D-pyranoglucosyl) ester]]
reduction of content (HPLC) after storage [3]: less than 0.2%
crystal form after storage (XRPD) [4]: unchanged
crystal form after drying (XRPD) [5]: unchanged
hygroscopicity compared with the amorphous form and crystal form B ([1]; 25° C. and 40% RH): significantly less hygroscopic
hygroscopicity compared with amorphism under normal storage ([1]; 40%-80% RH): less hygroscopic than amorphism
hygroscopic mass change (0%-40% RH) [1]: 9.4%
hygroscopicity: water absorption at 40% RH [1]: 40% RH, 9.4% of
hygroscopic mass change (40%-80% RH) ([1]; 40%-80% RH): 4.6%
hygroscopicity: water absorption at 80% RH [1]: 80% RH, 14.0% of
mass percentage of moisture absorption within a relative humidity of 0-40% ([1]; dynamic moisture adsorption profile FIG. 4, RH 0-40%): 0-9.4%
mass percentage of moisture absorption within a relative humidity of 40-80% ([1]; dynamic moisture adsorption profile FIG. 4, RH 40-80%): 9.4-14.0%
equilibrium solubility in water ([6]; at 24 hours): about 2 mg/mL
maximum solubility in water ([6]; powder dissolution): about 3 mg/mL

C=C1C[C@@]23CCC4[C@](C)(C(=O)OC5OC(CO)C(O)C(OC6OC(CO)C(O)C(O)C6O)C5OC5OC(CO)C(O)C(O)C5O)CCC[C@@]4(C)[C@@H]2CCC1(OC1OC(CO)C(O)C(OC2OC(CO)C(O)C(O)C2O)C1OC1OC(CO)C(O)C(O)C1O)C3 (stereo partly drawn) [crystal form B of stevioside M, 13-[(2-O-β-D-pyranoglucosyl-3-O-β-D-pyranoglucosyl-β-D-pyranoglucosyl)oxyl]-ent-kauran-16-en-19-oic acid-[(2-O-β-D-pyranoglucosyl-3-O-β-D-pyranoglucosyl-β-D-pyranoglucosyl) ester]]
crystal form after drying (XRPD) [5]: amorphous
hygroscopic mass change (0%-40% RH) [1]: 15.3%
hygroscopicity: water absorption at 40% RH [1]: 40% RH, 15.3% of
hygroscopic mass change (40%-80% RH) ([1]; 40%-80% RH): 2.1%
hygroscopicity: water absorption at 80% RH [1]: 80% RH, 17.4% of
